# Reference: the NIST ThermoML archive (doi:10.1021/acs.jced.5b01043)
# ± gives the expanded uncertainty stated by the source.
# How the values were obtained:
# [1] = refractive index (Na D-line) (dimensionless); wn = mass fraction of the nth substance listed; settings: 100 kPa, Liquid, Standard Abbe refractometry
# [2] = wn = mass fraction of the nth substance listed; settings: 100 kPa, Liquid, Vibrating tube method
smiles,measurement,setting,value
"CCN(C=O)CC [N,N-diethylformamide] + [Cl-].[Rb+]",refractive index,"[1]; 288.15 K, w2 = 0.0016",1.43675 ± 0.00037
same,refractive index,"[1]; 298.15 K, w2 = 0.0011",1.43253 ± 0.00037
same,refractive index,"[1]; 308.15 K, w2 = 0.0008",1.42819 ± 0.00037
same,mass density,"[2]; 288.15 K, w2 = 0.0016",910.95 ± 0.28 kg/m3
same,mass density,"[2]; 298.15 K, w2 = 0.0011",902.43 ± 0.25 kg/m3
same,mass density,"[2]; 308.15 K, w2 = 0.0008",894.54 ± 0.25 kg/m3
[Cl-].[Cs+] [cesium chloride] + O,refractive index,"[1]; 288.15 K, w1 = 0.6406",1.41772 ± 0.00032
same,mass density,"[2]; 288.15 K, w1 = 0.6406",1893.82 ± 1.2 kg/m3
"CCN(C=O)CC [N,N-diethylformamide] + [Cl-].[Na+]",refractive index,"[1]; 288.15 K, w2 = 0.0013",1.43642 ± 0.00037
same,refractive index,"[1]; 298.15 K, w2 = 0.0009",1.43203 ± 0.00037
same,refractive index,"[1]; 308.15 K, w2 = 0.0005",1.42776 ± 0.00037
same,mass density,"[2]; 288.15 K, w2 = 0.0013",912.57 ± 0.26 kg/m3
same,mass density,"[2]; 298.15 K, w2 = 0.0009",904.23 ± 0.25 kg/m3
same,mass density,"[2]; 308.15 K, w2 = 0.0005",896.38 ± 0.24 kg/m3
[Cl-].[Na+] [sodium chloride] + O,refractive index,"[1]; 288.15 K, w1 = 0.2631",1.381 ± 0.00032
same,refractive index,"[1]; 298.15 K, w1 = 0.265",1.37938 ± 0.00031
same,refractive index,"[1]; 308.15 K, w1 = 0.2666",1.37784 ± 0.00032
same,mass density,"[2]; 288.15 K, w1 = 0.2631",1202.37 ± 0.69 kg/m3
same,mass density,"[2]; 298.15 K, w1 = 0.265",1197.1 ± 0.69 kg/m3
same,mass density,"[2]; 308.15 K, w1 = 0.2666",1193.13 ± 0.69 kg/m3
[Cl-].[Rb+] [rubidium chloride] + O,refractive index,"[1]; 288.15 K, w1 = 0.4652",1.38751 ± 0.00032
same,refractive index,"[1]; 298.15 K, w1 = 0.4823",1.38769 ± 0.00032
same,refractive index,"[1]; 308.15 K, w1 = 0.5033",1.38939 ± 0.00032
same,mass density,"[2]; 288.15 K, w1 = 0.4652",1482.6 ± 0.87 kg/m3
same,mass density,"[2]; 298.15 K, w1 = 0.4823",1495.24 ± 0.88 kg/m3
same,mass density,"[2]; 308.15 K, w1 = 0.5033",1520.16 ± 0.9 kg/m3
"CCN(C=O)CC [N,N-diethylformamide] + [Cl-].[Cs+]",refractive index,"[1]; 288.15 K, w2 = 0.0013",1.43686 ± 0.00037
same,mass density,"[2]; 288.15 K, w2 = 0.0013",910.38 ± 0.26 kg/m3
"CCN(C=O)CC [N,N-diethylformamide] + [Cl-].[K+]",refractive index,"[1]; 288.15 K, w2 = 0.0015",1.43618 ± 0.00037
same,refractive index,"[1]; 298.15 K, w2 = 0.0009",1.43281 ± 0.00037
same,refractive index,"[1]; 308.15 K, w2 = 0.0005",1.42872 ± 0.00037
same,mass density,"[2]; 288.15 K, w2 = 0.0015",911.47 ± 0.27 kg/m3
same,mass density,"[2]; 298.15 K, w2 = 0.0009",903.51 ± 0.25 kg/m3
same,mass density,"[2]; 308.15 K, w2 = 0.0005",896.68 ± 0.24 kg/m3
[Cl-].[K+] [potassium chloride] + O,refractive index,"[1]; 288.15 K, w1 = 0.2483",1.36809 ± 0.00032
same,refractive index,"[1]; 298.15 K, w1 = 0.2668",1.36838 ± 0.00032
same,refractive index,"[1]; 308.15 K, w1 = 0.2768",1.36932 ± 0.00032
same,mass density,"[2]; 288.15 K, w1 = 0.2483",1169.18 ± 0.67 kg/m3
same,mass density,"[2]; 298.15 K, w1 = 0.2668",1174.11 ± 0.68 kg/m3
same,mass density,"[2]; 308.15 K, w1 = 0.2768",1184.11 ± 0.68 kg/m3
"CCN(C=O)CC [N,N-diethylformamide] + O",refractive index,"[1]; 298.15 K, w1 = 0.009925",1.33379 ± 0.00031
same,refractive index,"[1]; 298.15 K, w1 = 0.04",1.33758 ± 0.00031
same,refractive index,"[1]; 298.15 K, w1 = 0.06998",1.34136 ± 0.00032
same,refractive index,"[1]; 298.15 K, w1 = 0.09919",1.34512 ± 0.00032
same,refractive index,"[1]; 298.15 K, w1 = 0.129",1.34898 ± 0.00032
same,refractive index,"[1]; 298.15 K, w1 = 0.16",1.35302 ± 0.00032
same,refractive index,"[1]; 298.15 K, w1 = 0.1897",1.35684 ± 0.00032
same,mass density,"[2]; 298.15 K, w1 = 0.009925",996.45 ± 0.11 kg/m3
same,mass density,"[2]; 298.15 K, w1 = 0.04",995.04 ± 0.11 kg/m3
same,mass density,"[2]; 298.15 K, w1 = 0.06998",993.7 ± 0.11 kg/m3
same,mass density,"[2]; 298.15 K, w1 = 0.09919",992.49 ± 0.12 kg/m3
same,mass density,"[2]; 298.15 K, w1 = 0.129",991.3 ± 0.12 kg/m3
same,mass density,"[2]; 298.15 K, w1 = 0.16",989.97 ± 0.12 kg/m3
same,mass density,"[2]; 298.15 K, w1 = 0.1897",988.8 ± 0.12 kg/m3
